“Also recorded” adds a separate entry of the source.
Test system: human chondrocyte cell line-C28
Test: gene expression in human chondrocyte cell line C28 treated with 3TC
Format: cell-based
Description: Both miRNA and mRNA were extracted using miRNeasy Mini Kit (Qiagen®, Germantown, Md., USA) and reversely transcribed using miScriptIIRT Kit (Qiagen®, Germantown, Md., USA) according to manufacturer's instruction. qPCR was performed using SYBR Green PCR master mix (Qiagen®, Germantown, Md., USA) on a Bio-Rad CFX96 real-time PCR detection system (Bio-Rad®, Hercules, Calif., USA). Amplification conditions are as follows: 95° C. for 10 min, 40 cycles of 95° C. for 10″, 55° C. for 30″, and 72° C. for 30″. 18S ribosomal or GAPDH RNA was used as an internal control gene to normalize the mRNAs level. The ubiquitously expressed snRNA U6 was used as an endogenous control for miRNAs level. Primers were synthesized by Integrated DNA Technologies (http://www.idtdna.com). The primers for miR-365 were purchased from Qiagen. Fold changes of mRNA and miRNAs were calculated by the 2^^(ΔΔCt) method and normalized to 18S/GAPDH or U6 snRNA, respectively. […]

[1] = human chondrocytes C28, RNA level, various dosages

## Nc1ccn([C@@H]2CS[C@H](CO)O2)c(=O)n1 [3TC, lamivudine]
[1]
  Acan expression: promotes; also recorded: stimulated
  Adamts5 expression: inhibited
  COL10 (COL10A1) expression: inhibited
  IHH expression: inhibits
  Line-1 expression: inhibited
  MMP13 expression: inhibited
Human chondrocytes, RNA level
  COL2A1 expression: stimulated

Reference: US12121530B2, “Composition and methods for treating articulating joint disorders with nucleoside reverse transcriptase inhibitors” (RHODE ISLAND HOSPITAL, priority 2018, dated 2024)
